The values below come from patent US11149027B2, “Heterocyclic compound” (Sumitomo Chemical Company, Limited, priority 2016, dated 2021).

The test system of series [1] is houseflies (Musca domestica). As to the kind of experiment: Test Example 10: treated filter paper with sucrose, houseflies. In kind it is in vivo. The note with it: 500 ppm, 0.7 ml on filter paper with sucrose, female adult, after 24 hours. The procedure: (§1) Test compounds are made to a formulation according to a similar method to that described in the Formulation example 5, and thereto is added water to prepare a diluted solution containing a prescribed concentration of the test compound.
A filter paper having a diameter of 5.5 cm in diameter is spread on the bottom of the cup, and 30 mg of sucrose is placed on the filter paper, and then 0.7 ml of the diluted solutions are added dropwise to the filter paper. Ten (10) houseflies (Musca domestica) female adult are released into the cup. After 24 hours, the number of the died insects is counted, and the mortality of insects is calculated by the following equation. Mortality (%)=(Number of died insects/test insects)×100

Series [2] has as its system brown planthoppers (Nilaparvata lugens). As to the kind of experiment: Test Example 4: root uptake by rice seedling from diluted solution, brown planthoppers. In kind it is in vivo. The note with it: 1000 ppm, 5 mL diluted solution under rice seedling, third instar larvae released after 7 days, examined after 6 days. The procedure: as §1
The diluted solution 5 mL is added to one cup, and Rice (Oryza sativa) seedling (on the developmental stage of the second true leaf) is planted in the other cup with a hole on the bottom and the other cup is placed on the cup. After 7 days, 20 brown planthoppers (Nilaparvata lugens) at the third instar larval stage are released onto the seedling. After 6 days, the number of the surviving insects is examined, and the mortality is calculated by the following equation. Mortality (%)={1−Number of surviving insects/20}×100

Molecules are shown by their SMILES. A value given as a limit tells only on which side of the number the result lay.

Molecule `CCS(=O)(=O)c1cccnc1-c1ccc(-n2ccc(C(F)(F)F)n2)nn1` [compound 2] showed a mortality of insects in series [1] of 100%. On the same count and under the same terms, next, `CCS(=O)(=O)c1cccnc1-c1ccc(-n2cnc(C(F)(F)F)n2)nn1` [compound 4]: 100%; `CCS(=O)(=O)c1cccnc1-c1ccc(-n2cnc(C(F)(F)F)c2)nn1` [compound 7]: 100%. Turning to `CCS(=O)(=O)c1cccnc1-c1ccc(-n2cc(C(F)(F)F)cn2)nn1` [compound 9], the results for the mortality of insects in series [1] and in series [2] were 100% and no less than 90%, respectively.
